Measurements: PMC10410440, “Preclinical PK investigation of a novel IDO1/TDO dual inhibitor—SHR9146 in mouse plasma and tissues by LC-MS/MS” (Frontiers in Oncology, 2023)
“And” between values parts separate entries of the source, which are not always exact repeats. Identical values can stand only once. Like-named read-outs stand apart in the source and are kept apart here.

Test: Tissue distribution of SHR9146 in mice after oral gavage of 40 mg/kg
Format: in vivo, ICR mice
Settings: male, 40 mg/kg oral gavage; for concentration at 1 h / concentration at 3 h / concentration at 6 h: ICR, mouse, po
Experimental: ICR mice with body weight 16–26 g were supplied by Shanghai Lingchang Biotechnology Co., Ltd. (animal breeding license number SCXK (Shanghai) 2013-0018) and housed at Shanghai Institute of Materia Medica, Chinese Academy of Sciences [animal use license number SYXK (Shanghai) 2015-0027]. The mice used in this study were fasted overnight for 12 h but had free access to water. Food was supplied 4 h post-dose. All experiments in this study were conducted in accordance with the Guidelines for the Care and Use of Laboratory Animals of Shanghai Institute of Materia Medica, Chinese Academy of Sciences.
Another set of 30 mice were randomly assigned into five groups with equal numbers, males and females, for tissue distribution study with oral gavage at a single dose of 40 mg/kg at predetermined different time points: pre-dose and post dose at 1, 3, 6, and 24 h, respectively. The whole brain, heart, liver, spleen, lung, kidney, bladder, pancreas, testis, ovary, uterus, stomach, small intestine, adrenal gland, skin, skeletal muscle, thyroid gland, and abdominal fat tissues as well as the whole blood and plasma samples were harvested. Tissue samples were washed with 0.9% sodium chloride solution to remove the residual blood or contents, blotted on a filter paper, and stored at −70°C prior to the analysis.
Protein precipitation was selected for the pretreatment of both the plasma and the tissue homogenate prepared after thawing at room temperature, cut into pieces, and homogenized with a quintuple methanol–water mixture (1:1, v/v) for each tissue sample.
Briefly as follows, an aliquot of 25-μL plasma or tissue homogenate was spiked with 100 μL of internal standard solution (1 μg/mL for plasma, 0.2 μg/mL for tissue homogenate) and 300 μL of methanol added and vortex mixed for 60 s. The mixture was then centrifuged at 14,000 rpm at 4°C for 5.0 min, and the supernatant was diluted with methanol–water (4:1, v/v) in a ratio of 1:9 for the plasma or 1:1 for the tissue homogenate, and 5 μL of the resulting solution was injected for the LC-MS/MS analysis.
After oral administration of 40 mg/kg SHR9146, samples in different tissues at predetermined time points (pre-drug administration, post-drug administration at 1, 3, 6, and 24 h) were collected and prepared for the analysis. The drug concentrations of SHR9146 (μg/g or μg/mL) were determined for each mouse, and the mean and standard deviation were further obtained (Table S7).

[1] = 24 h, individual mice, 40 mg/kg

## OCCn1cc(-c2ccc(N3CCC([C@H]4c5c(F)cccc5-c5cncn54)CC3)cc2)cn1 [SHR9146]
1 h, individual mice, 40 mg/kg
  SHR9146 concentration in Pancreas: 15.265 µg/g and 8.681 µg/g
  SHR9146 concentration in Plasma: 11.481 µg/mL and 5.761 µg/mL
  SHR9146 concentration in Small intestine: 24.690 µg/g and 24.120 µg/g
3 h, individual mice, 40 mg/kg
  SHR9146 concentration in Bladder: 0.390 µg/g and 6.162 µg/g and 6.598 µg/g
  SHR9146 concentration in Brain: BLQ
  SHR9146 concentration in Kidney: 0.314 µg/g and 6.873 µg/g and 7.165 µg/g
  SHR9146 concentration in Liver: 1.367 µg/g and 13.792 µg/g and 13.853 µg/g
  SHR9146 concentration in Lung: 0.798 µg/g and 7.286 µg/g and 7.382 µg/g
  SHR9146 concentration in Pancreas: 0.231 µg/g and 7.160 µg/g and 7.228 µg/g
  SHR9146 concentration in Small intestine: 0.411 µg/g and 11.992 µg/g and 8.326 µg/g
6 h, individual mice
  SHR9146 concentration in Brain: BLQ
6 h, individual mice, 40 mg/kg
  SHR9146 concentration in Abdominal fat: BLQ
  SHR9146 concentration in Adrenal gland: BLQ and 0.313 μg/g
  SHR9146 concentration in Bladder: BLQ and 0.199 μg/g
  SHR9146 concentration in Heart: BLQ
  SHR9146 concentration in Kidney: 0.159 µg/g and 0.129 µg/g and 0.344 µg/g
  SHR9146 concentration in Liver: 0.702 µg/g and 0.351 µg/g and 0.845 µg/g
  SHR9146 concentration in Lung: 0.510 µg/g and 0.701 µg/g
  SHR9146 concentration in Pancreas: BLQ and 0.127 μg/g
  SHR9146 concentration in Plasma: BLQ
  SHR9146 concentration in Skeletal muscle: BLQ
  SHR9146 concentration in Small intestine: BLQ and 0.152 μg/g
  SHR9146 concentration in Spleen: BLQ
  SHR9146 concentration in Whole blood: BLQ
  SHR9146 concentration in thyroid gland: BLQ
24 h, individual mice
  SHR9146 concentration in Abdominal fat: BLQ
  SHR9146 concentration in Adrenal gland: BLQ
  SHR9146 concentration in Bladder: BLQ
  SHR9146 concentration in Brain: BLQ
  SHR9146 concentration in Heart: BLQ
  SHR9146 concentration in Pancreas: BLQ
  SHR9146 concentration in Plasma: BLQ
  SHR9146 concentration in Skeletal muscle: BLQ
  SHR9146 concentration in Small intestine: BLQ
  SHR9146 concentration in Spleen: BLQ
  SHR9146 concentration in Testis: BLQ
  SHR9146 concentration in Whole blood: BLQ
  SHR9146 concentration in thyroid gland: BLQ
[1]
  SHR9146 concentration in Kidney: BLQ
  SHR9146 concentration in Liver: BLQ
  SHR9146 concentration in Lung: 0.064 µg/g and 0.105 µg/g
  SHR9146 concentration in Skin: BLQ
Abdominal fat, 40 mg/kg, 1 h, Mean (n=3), read-out: SHR9146 concentration in Abdominal fat
  concentration at 1 h: 7200 ng/g
Abdominal fat, 40 mg/kg, 3 h, Mean (n=3), read-out: SHR9146 concentration in Abdominal fat
  concentration at 3 h: 4070 ng/g
Abdominal fat, 40 mg/kg, 6 h, Mean (n=3), read-out: SHR9146 concentration in Abdominal fat
  concentration at 6 h: 75 ng/g
Adrenal gland, 40 mg/kg, 1 h, Mean (n=3), read-out: SHR9146 concentration in Adrenal gland
  concentration at 1 h: 23600 ng/g
Adrenal gland, 40 mg/kg, 1 h, individual mice, read-out: SHR9146 concentration in Adrenal gland
  concentration at 1 h: 24100 ng/g
Adrenal gland, 40 mg/kg, 3 h, Mean (n=3), read-out: SHR9146 concentration in Adrenal gland
  concentration at 3 h: 8450 ng/g
Adrenal gland, 40 mg/kg, 6 h, Mean (n=3), read-out: SHR9146 concentration in Adrenal gland
  concentration at 6 h: 163 ng/g
Adrenal gland, 40 mg/kg, 6 h, individual mice, read-out: SHR9146 concentration in Adrenal gland
  concentration at 6 h: 177 ng/g
bladder, 40 mg/kg, 1 h, Mean (n=3), read-out: SHR9146 concentration in Bladder
  concentration at 1 h: 12400 ng/g
bladder, 40 mg/kg, 1 h, individual mice, read-out: SHR9146 concentration in Bladder
  concentration at 1 h: 12500 ng/g
bladder, 40 mg/kg, 3 h, Mean (n=3), read-out: SHR9146 concentration in Bladder
  concentration at 3 h: 4380 ng/g
bladder, 40 mg/kg, 6 h, Mean (n=3), read-out: SHR9146 concentration in Bladder
  concentration at 6 h: 163 ng/g
bladder, 40 mg/kg, 6 h, individual mice, read-out: SHR9146 concentration in Bladder
  concentration at 6 h: 291 ng/g
brain, 40 mg/kg, 1 h, Mean (n=3), read-out: SHR9146 concentration in Brain
  concentration at 1 h: 1890 ng/g
brain, 40 mg/kg, 1 h, individual mice, read-out: SHR9146 concentration in Brain
  concentration at 1 h: 2280 ng/g
brain, 40 mg/kg, 3 h, Mean (n=3), read-out: SHR9146 concentration in Brain
  concentration at 3 h: 666 ng/g
brain, 40 mg/kg, 3 h, individual mice, read-out: SHR9146 concentration in Brain
  concentration at 3 h: 1020 ng/g
heart, 40 mg/kg, 1 h, Mean (n=3), read-out: SHR9146 concentration in Heart
  concentration at 1 h: 7320 ng/g
heart, 40 mg/kg, 1 h, individual mice, read-out: SHR9146 concentration in Heart
  concentration at 1 h: 8420 ng/g
heart, 40 mg/kg, 3 h, Mean (n=3), read-out: SHR9146 concentration in Heart
  concentration at 3 h: 2660 ng/g
heart, 40 mg/kg, 6 h, Mean (n=3), read-out: SHR9146 concentration in Heart
  concentration at 6 h: 48 ng/g
heart, 40 mg/kg, 6 h, individual mice, read-out: SHR9146 concentration in Heart
  concentration at 6 h: 61 ng/g
kidney, 40 mg/kg, 1 h, Mean (n=3), read-out: SHR9146 concentration in Kidney
  concentration at 1 h: 11900 ng/g
kidney, 40 mg/kg, 1 h, individual mice, read-out: SHR9146 concentration in Kidney
  concentration at 1 h: 12300 ng/g
kidney, 40 mg/kg, 3 h, Mean (n=3), read-out: SHR9146 concentration in Kidney
  concentration at 3 h: 4780 ng/g
